Results: PubChem BioAssay AID1745844 (Carcinogenic Potency Database (CPDB), 2022)
“And” between values parts separate entries of the source, which are not always exact repeats. Equal values may be shown once. The source made the active and inactive calls. How the calls were made is not given here.

Tested on: rodent lifetime carcinogenesis bioassay, tumor incidence TD50
Assay: carcinogenic potency in animals, long-term in vivo studies, CPDB compilation (AID 1745844)

Compound `Cc1ccc(S(=O)(=O)Oc2ccc(N=Nc3ccc(-c4ccc(N=Nc5c(O)ccc6cc(S(=O)(=O)O)cc(S(=O)(=O)O)c56)c(C)c4)cc3C)cc2)cc1` has a TD50 (rat, strain Fischer 344, females, in drinking water, site: Zymbal's gland, lesion: adenoma + carcinoma, dosed 98 weeks, study length 104 weeks) of 15.6 mg/kg/day, a TD50 (rat, strain Fischer 344, females, in drinking water, site: Zymbal's gland, lesion: adenoma, dosed 98 weeks, study length 104 weeks) of 65.4 mg/kg/day and a TD50 (rat, strain Fischer 344, females, in drinking water, site: Zymbal's gland, lesion: carcinoma, dosed 98 weeks, study length 104 weeks) of 18 mg/kg/day. It also gave a TD50 (rat, strain Fischer 344, females, in drinking water, site: adrenal medulla, lesion: pheochromocytoma, benign, dosed 98 weeks, study length 104 weeks) of 38.3 mg/kg/day, a TD50 (rat, strain Fischer 344, females, in drinking water, site: adrenal medulla, lesion: pheochromocytoma, malignant + pheochromocytoma, benign, dosed 98 weeks, study length 104 weeks) of 31.6 mg/kg/day and a TD50 (rat, strain Fischer 344, females, in drinking water, site: any site (literature study), lesion: several types, types named in the paper, dosed 98 weeks, study length 104 weeks) of 2.31 mg/kg/day. The TD50 (rat, strain Fischer 344, females, in drinking water, site: clitoral gland + colon + duodenum + jejunum + liver + lung + pharynx + rectum + skin + tongue + Zymbal's gland, lesion: adenoma + adenoma, bilateral + carcinoma + carcinoma, bilateral + adenomatous polyp + mucinous cystadenocarcinoma + hepatocellular c, dosed 98 weeks, study length 104 weeks) was 3.11 mg/kg/day, the TD50 (rat, strain Fischer 344, females, in drinking water, site: clitoral gland, lesion: adenoma + adenoma, bilateral + carcinoma + carcinoma, bilateral, dosed 98 weeks, study length 104 weeks) was 4.75 mg/kg/day and the TD50 (rat, strain Fischer 344, females, in drinking water, site: clitoral gland, lesion: adenoma + adenoma, bilateral, dosed 98 weeks, study length 104 weeks) was 11.9 mg/kg/day. For the same compound, the TD50 (rat, strain Fischer 344, females, in drinking water, site: clitoral gland, lesion: carcinoma + carcinoma, bilateral, dosed 98 weeks, study length 104 weeks) was 8.97 mg/kg/day, the TD50 (rat, strain Fischer 344, females, in drinking water, site: colon + rectum, lesion: adenomatous polyp + mucinous cystadenocarcinoma, dosed 98 weeks, study length 104 weeks) was 136 mg/kg/day and the TD50 (rat, strain Fischer 344, females, in drinking water, site: duodenum + jejunum, lesion: adenomatous polyp + mucinous cystadenocarcinoma, dosed 98 weeks, study length 104 weeks) was 213 mg/kg/day. For the same compound, the TD50 (rat, strain Fischer 344, females, in drinking water, site: liver, lesion: hepatocellular adenoma + hepatocellular carcinoma + neoplastic nodule, dosed 98 weeks, study length 104 weeks) was 14.2 mg/kg/day, the TD50 (rat, strain Fischer 344, females, in drinking water, site: liver, lesion: hepatocellular carcinoma + neoplastic nodule, dosed 98 weeks, study length 104 weeks) was 14.2 mg/kg/day and the TD50 (rat, strain Fischer 344, females, in drinking water, site: liver, lesion: hepatocellular carcinoma, dosed 98 weeks, study length 104 weeks) was 42.5 mg/kg/day. For the same compound, the TD50 (rat, strain Fischer 344, females, in drinking water, site: liver, lesion: neoplastic nodule, dosed 98 weeks, study length 104 weeks) was 18 mg/kg/day, the TD50 (rat, strain Fischer 344, females, in drinking water, site: lung, lesion: alveolar/bronchiolar adenoma + alveolar/bronchiolar carcinoma, dosed 98 weeks, study length 104 weeks) was 23.6 mg/kg/day and the TD50 (rat, strain Fischer 344, females, in drinking water, site: lung, lesion: alveolar/bronchiolar adenoma, dosed 98 weeks, study length 104 weeks) was 26.3 mg/kg/day. The TD50 (rat, strain Fischer 344, females, in drinking water, site: mammary gland, lesion: adenocarcinoma, dosed 98 weeks, study length 104 weeks) was 40.6 mg/kg/day, the TD50 (rat, strain Fischer 344, females, in drinking water, site: mammary gland, lesion: adenoma, dosed 98 weeks, study length 104 weeks) was 67 mg/kg/day and the TD50 (rat, strain Fischer 344, females, in drinking water, site: mammary gland, lesion: fibroadenoma, dosed 98 weeks, study length 104 weeks) was 11.4 mg/kg/day. The TD50 (rat, strain Fischer 344, females, in drinking water, site: multiple organs, lesion: leukemia + mononuclear-cell leukemia, dosed 98 weeks, study length 104 weeks) was 9.44 mg/kg/day, the TD50 (rat, strain Fischer 344, females, in drinking water, site: pharynx + tongue, lesion: squamous-cell carcinoma + squamous-cell papilloma, dosed 98 weeks, study length 104 weeks) was 31.4 mg/kg/day and the TD50 (rat, strain Fischer 344, females, in drinking water, site: pharynx + tongue, lesion: squamous-cell carcinoma, dosed 98 weeks, study length 104 weeks) was 227 mg/kg/day. The TD50 (rat, strain Fischer 344, females, in drinking water, site: pharynx + tongue, lesion: squamous-cell papilloma, dosed 98 weeks, study length 104 weeks) was 36.5 mg/kg/day, the TD50 (rat, strain Fischer 344, females, in drinking water, site: pharynx, lesion: squamous-cell papilloma, dosed 98 weeks, study length 104 weeks) was 72.4 mg/kg/day and the TD50 (rat, strain Fischer 344, females, in drinking water, site: pituitary gland, lesion: pars distalis adenoma, dosed 98 weeks, study length 104 weeks) was 11.1 mg/kg/day. It also gave a TD50 (rat, strain Fischer 344, females, in drinking water, site: skin, lesion: basal-cell adenoma + basal-cell carcinoma, dosed 98 weeks, study length 104 weeks) of 21.9 mg/kg/day, a TD50 (rat, strain Fischer 344, females, in drinking water, site: skin, lesion: basal-cell adenoma, dosed 98 weeks, study length 104 weeks) of 28.2 mg/kg/day and a TD50 (rat, strain Fischer 344, females, in drinking water, site: skin, lesion: squamous-cell carcinoma + squamous-cell papilloma, dosed 98 weeks, study length 104 weeks) of 49.7 mg/kg/day. The TD50 (rat, strain Fischer 344, females, in drinking water, site: skin, lesion: squamous-cell carcinoma, dosed 98 weeks, study length 104 weeks) was 57.3 mg/kg/day, the TD50 (rat, strain Fischer 344, females, in drinking water, site: subcutaneous tissue, lesion: fibrosarcoma + fibroma, dosed 98 weeks, study length 104 weeks) was 78.2 mg/kg/day and the TD50 (rat, strain Fischer 344, females, in drinking water, site: thyroid gland, lesion: c-cell adenoma, dosed 98 weeks, study length 104 weeks) was 48.7 mg/kg/day. It also gave a TD50 (rat, strain Fischer 344, females, in drinking water, site: thyroid gland, lesion: follicular-cell adenoma + follicular-cell carcinoma, dosed 98 weeks, study length 104 weeks) of 28.8 mg/kg/day, a TD50 (rat, strain Fischer 344, females, in drinking water, site: thyroid gland, lesion: follicular-cell adenoma, dosed 98 weeks, study length 104 weeks) of 53.5 mg/kg/day and a TD50 (rat, strain Fischer 344, females, in drinking water, site: thyroid gland, lesion: follicular-cell carcinoma, dosed 98 weeks, study length 104 weeks) of 68.9 mg/kg/day. The TD50 (rat, strain Fischer 344, females, in drinking water, site: tongue, lesion: squamous-cell carcinoma + squamous-cell papilloma, dosed 98 weeks, study length 104 weeks) was 65.7 mg/kg/day, the TD50 (rat, strain Fischer 344, females, in drinking water, site: tongue, lesion: squamous-cell papilloma, dosed 98 weeks, study length 104 weeks) was 75 mg/kg/day and the TD50 (rat, strain Fischer 344, females, in drinking water, site: uterus, lesion: endometrial stromal polyp + endometrial stromal sarcoma, dosed 98 weeks, study length 104 weeks) was 16.4 mg/kg/day. It also gave a TD50 (rat, strain Fischer 344, females, in drinking water, site: uterus, lesion: endometrial stromal polyp, dosed 98 weeks, study length 104 weeks) of 20.1 mg/kg/day, a TD50 (rat, strain Fischer 344, males, in drinking water, site: Zymbal's gland, lesion: adenoma + carcinoma, dosed 104 weeks, study length 104 weeks) of 27 mg/kg/day and a TD50 (rat, strain Fischer 344, males, in drinking water, site: Zymbal's gland, lesion: carcinoma, dosed 104 weeks, study length 104 weeks) of 29.8 mg/kg/day. It also gave a TD50 (rat, strain Fischer 344, males, in drinking water, site: adrenal medulla, lesion: pheochromocytoma benign, bilateral + pheochromocytoma, malignant + pheochromocytoma, benign, dosed 104 weeks, study length 104 weeks) of 5.94 mg/kg/day, a TD50 (rat, strain Fischer 344, males, in drinking water, site: adrenal medulla, lesion: pheochromocytoma, benign, dosed 104 weeks, study length 104 weeks) of 6.69 mg/kg/day and a TD50 (rat, strain Fischer 344, males, in drinking water, site: any site (literature study), lesion: several types, types named in the paper, dosed 104 weeks, study length 104 weeks) of 3.23 mg/kg/day. The TD50 (rat, strain Fischer 344, males, in drinking water, site: liver + skin + Zymbal's gland, lesion: hepatocellular carcinoma + neoplastic nodule + basal-cell adenoma + basal-cell carcinoma + keratoacanthoma + sebaceous gland carci, dosed 104 weeks, study length 104 weeks) was 2.8 mg/kg/day, the TD50 (rat, strain Fischer 344, males, in drinking water, site: liver, lesion: hepatocellular adenoma + hepatocellular carcinoma + neoplastic nodule, dosed 104 weeks, study length 104 weeks) was 7.02 mg/kg/day and the TD50 (rat, strain Fischer 344, males, in drinking water, site: liver, lesion: hepatocellular carcinoma + neoplastic nodule, dosed 104 weeks, study length 104 weeks) was 7.02 mg/kg/day. It also gave a TD50 (rat, strain Fischer 344, males, in drinking water, site: liver, lesion: hepatocellular carcinoma, dosed 104 weeks, study length 104 weeks) of 20.2 mg/kg/day, a TD50 (rat, strain Fischer 344, males, in drinking water, site: liver, lesion: neoplastic nodule, dosed 104 weeks, study length 104 weeks) of 10.4 mg/kg/day and a TD50 (rat, strain Fischer 344, males, in drinking water, site: lung, lesion: alveolar/bronchiolar adenoma + alveolar/bronchiolar carcinoma, dosed 104 weeks, study length 104 weeks) of 47.2 mg/kg/day. The TD50 (rat, strain Fischer 344, males, in drinking water, site: lung, lesion: alveolar/bronchiolar adenoma, dosed 104 weeks, study length 104 weeks) was 39 mg/kg/day, the TD50 (rat, strain Fischer 344, males, in drinking water, site: multiple organs, lesion: mononuclear-cell leukemia, dosed 104 weeks, study length 104 weeks) was 12.3 mg/kg/day and the TD50 (rat, strain Fischer 344, males, in drinking water, site: pharynx + tongue, lesion: squamous-cell papilloma, dosed 104 weeks, study length 104 weeks) was 71 mg/kg/day. It also gave a TD50 (rat, strain Fischer 344, males, in drinking water, site: skin, lesion: basal-cell adenoma + basal-cell carcinoma, dosed 104 weeks, study length 104 weeks) of 3.3 mg/kg/day, a TD50 (rat, strain Fischer 344, males, in drinking water, site: skin, lesion: basal-cell adenoma, dosed 104 weeks, study length 104 weeks) of 3.58 mg/kg/day and a TD50 (rat, strain Fischer 344, males, in drinking water, site: skin, lesion: basal-cell carcinoma, dosed 104 weeks, study length 104 weeks) of 22.8 mg/kg/day. For the same compound, the TD50 (rat, strain Fischer 344, males, in drinking water, site: skin, lesion: keratoacanthoma, dosed 104 weeks, study length 104 weeks) was 20.4 mg/kg/day, the TD50 (rat, strain Fischer 344, males, in drinking water, site: skin, lesion: sebaceous gland carcinoma + sebaceous adenoma, dosed 104 weeks, study length 104 weeks) was 23.4 mg/kg/day and the TD50 (rat, strain Fischer 344, males, in drinking water, site: skin, lesion: squamous-cell carcinoma + squamous-cell papilloma, dosed 104 weeks, study length 104 weeks) was 12.7 mg/kg/day. It also gave a TD50 (rat, strain Fischer 344, males, in drinking water, site: skin, lesion: squamous-cell carcinoma, dosed 104 weeks, study length 104 weeks) of 16.2 mg/kg/day and a TD50 (rat, strain Fischer 344, males, in drinking water, site: testis, lesion: interstitial-cell adenoma, bilateral + interstitial-cell adenoma, dosed 104 weeks, study length 104 weeks) of 3.39 mg/kg/day.

`CC1SC(C)N(N=O)C(C)S1` (stereo not given) was tested, and the TD50 (rat, strain Fischer 344, females, by gavage, site: esophagus, lesion: squamous-cell carcinoma, dosed 43 weeks, study length 90 weeks) was 1.63 mg/kg/day, the TD50 (rat, strain Fischer 344, females, by gavage, site: esophagus, lesion: squamous-cell tumor, dosed 43 weeks, study length 90 weeks) was 0.483 mg/kg/day and the TD50 (rat, strain Fischer 344, females, by gavage, site: liver, lesion: cholangioma, dosed 43 weeks, study length 90 weeks) was 3.58 mg/kg/day. The TD50 (rat, strain Fischer 344, females, by gavage, site: liver, lesion: hepatocellular adenoma, dosed 43 weeks, study length 90 weeks) was 2.61 mg/kg/day and the TD50 (rat, strain Fischer 344, females, by gavage, site: tongue, lesion: squamous-cell tumor, dosed 43 weeks, study length 90 weeks) was 1.53 mg/kg/day.

`Cc1ccc(N)c(C)c1` was tested, and the TD50 (mouse, strain CD-1 HaM/ICR, females, in feed, site: any site (literature study), lesion: several types, types named in the paper, dosed 77 weeks, study length 90 weeks) was 12.2 mg/kg/day, the carcinogen call (mouse, strain CD-1 HaM/ICR, females, in feed, site: liver, lesion: several types, types named in the paper, dosed 77 weeks, study length 90 weeks) was “negative (inactive)” and the TD50 (mouse, strain CD-1 HaM/ICR, females, in feed, site: lung, lesion: several types, types named in the paper, dosed 77 weeks, study length 90 weeks) was 12.4 mg/kg/day and 13.5 mg/kg/day. For the same compound, the TD50 (mouse, strain CD-1 HaM/ICR, males, in feed, site: any site (literature study), lesion: several types, types named in the paper, dosed 77 weeks, study length 90 weeks) was 646 mg/kg/day (inactive), the TD50 (mouse, strain CD-1 HaM/ICR, males, in feed, site: liver, lesion: several types, types named in the paper, dosed 77 weeks, study length 90 weeks) was 65.4 mg/kg/day (inactive) and the carcinogen call (mouse, strain CD-1 HaM/ICR, males, in feed, site: lung, lesion: several types, types named in the paper, dosed 77 weeks, study length 90 weeks) was “negative (inactive)”. For the same compound, the TD50 (rat, strain Charles River CD (Sprague-Dawley), males, in feed, site: any site (literature study), lesion: several types, types named in the paper, dosed 77 weeks, study length 98 weeks) was 16.8 mg/kg/day (inactive) and the TD50 (rat, strain Charles River CD (Sprague-Dawley), males, in feed, site: liver, lesion: several types, types named in the paper, dosed 77 weeks, study length 98 weeks) was 260 mg/kg/day (inactive).
